Results taken from patent US20250270202A1, “SUBSTITUTED 4-AMINOISOINDOLINE COMPOUND, PREPARATION METHOD THEREFOR, PHARMACEUTICAL COMPOSITION THEREOF, AND USE THEREOF” (SHANGHAI INSTITUTE OF MATERIA MEDICA, CHINESE ACADEMY OF …, priority 2022, published 2025).
Read-outs that look alike come from different tables or passages of the source.

Legend:
Type in all cases: cell-based
[1] = tested on: MM.1S cells; experiment: Effect of the compound on MM.1S cell proliferation (MTS, 7 days); conditions: Homo sapiens, MM1.S
Experimental: MM.1S cells were cultured in 1640 medium supplemented with 10% fetal bovine serum, then collected and diluted to the desired cell concentration after 7 days of treatment. A total of 180 μL of cell suspension was added to each well in a 96-well cell plate, ensuring 20,000 cells per well. For the control group, 20 μL of 0.2% DMSO was added to each well. Compounds were diluted in a 5-step gradient from a 10 mM stock solution, and 20 μL of each dilution was added to the compound-containing wells (with a final DMSO concentration of 0.2%). The cells were incubated in a 37° C., 5% CO2 incubator for 7 days. Afterward, 20 μL of the MTS reagent (Promega, G5430) was added to each well, followed by incubation for 3-4 hours in a 37° C., 5% CO2 incubator. Absorbance at 490 nm was measured using a microplate reader, with 690 nm absorbance as the background. The final raw data was calculated as OD490-OD690. The compound inhibition rate was calculated using the formula: […]
The IC50 for the compound's proliferative inhibition was fitted using GraphPad Prism 5.0. The experiment was repeated three times, and the average and standard deviation were calculated using three parallel experiments per trial.

[2] = tested on: Mino cells; experiment: Inhibition of cell proliferation of Mino cells (MTS, 3 days); conditions: Homo sapiens, MINO
Experimental: Mino cells were cultured with RPMI-1640 medium supplemented with 15% fetal bovine serum, and collected. The cell concentration was diluted according to a 3-day treatment period, and 90 μL of the cell suspension was added to each well of a 96-well plate, resulting in 8000 cells per well. For control wells, 10 μL of DMSO at a final concentration of 0.2% was added. The compounds were diluted in a 5-fold gradient from a 10 mM stock solution, and 10 μL of each compound solution was added to the experimental wells (with a final DMSO concentration of 0.2%). The cells were incubated in a 37° C., 5% CO2 incubator for 3 days. After preparing the reaction mixture using the MTS reagent kit (Promega, G5430), 20 μL was added to each well, and the cells were incubated for 3-4 hours at 37° C., 5% CO2.
The absorbance at 490 nm was read using a microplate reader, with the absorbance at 690 nm used as the background. The final raw data was calculated as OD490-OD690. The inhibition rate of the compounds was calculated using the formula: Inhibition rate=(OD DMSO−OD compound)/(OD DMSO−OD blank)×100%. The IC50 values for cell proliferation inhibition of the compounds were fitted using GraphPad Prism 5.0. The experiment was repeated three times, with the average and standard deviation calculated from three parallel experiments each time.

[3] = tested on: MV-4-11 cells; experiment: Inhibition of MV-4-11 cell proliferation (MTS, 7 days); conditions: Homo sapiens
Experimental: MV-4-11 cells were cultured in IMDM with 10% fetal bovine serum, collected, and diluted to the appropriate cell concentration for a 7-day treatment period. A 96-well plate was used, and 180 μL of cell suspension was added to each well, resulting in a cell count of 2,000 per well. For the control wells, 20 μL of DMSO at a final concentration of 0.2% was added. The compounds were diluted from a 10 mM stock solution in a five-fold gradient, and 20 μL was added to the compound wells (with a final DMSO concentration of 0.2%). The cells were incubated in a 37° C., 5% CO2 incubator for 7 days. After preparing the reaction solution using the MTS reagent kit (Promega, G5430), 20 μL was added to each well, and the cells were incubated in the incubator for 3-4 hours. The absorbance at 490 nm was measured using a microplate reader, with the absorbance at 690 nm as the background value. The final data was calculated as OD490-OD690. The inhibition rate of the compounds was calculated using the formula: […]
The IC50 values for proliferation inhibition were calculated using GraphPad Prism 5.0. The experiments were repeated three times, with three parallel experiments for each, and the mean and standard deviation were calculated.
The cell activity test results are shown in Table 3: A indicates IC50<1 μM, B indicates 1 µM≤IC50≤20 μM, and C indicates IC50>20 μM.

[4] = 168 h, 7 days, MTS, Table 1, read-out: MM.1S Cells Inhibition Activity IC50
[5] = 72 h, 3 days, MTS, Table 2, read-out: Mino Cells Inhibition Activity IC50
[6] = MV4-11, 168 h, 7 days, MTS, Table 3, read-out: MV-4-11 Cells Inhibition Activity IC50

Structure (SMILES) | IC50 [1, 4] | IC50 [3, 6] | IC50 ([1]; Table 4, read-out: Inhibitory Activity of Compounds on Cell Proliferation MM.1S IC50) | IC50 ([3]; MV4-11, Table 4, values in μM, read-out: Inhibitory Activity of Compounds on Cell Proliferation MV-4-11 IC50) | IC50 [2, 5] | IC50 ([2]; Table 4, read-out: Inhibitory Activity of Compounds on Cell Proliferation Mino IC50)
Cc1ccc(-c2cnc(CNc3cccc4c3C(=O)N(C3CCC(=O)NC3=O)C4=O)o2)cc1 (stereo not drawn) [Example 24] | 15 to 30 nM | < 1 µM |  |  | > 120 nM | 
O=C1CCC(N2C(=O)c3cccc(NCc4cnc(-c5ccc(Cl)cc5)s4)c3C2=O)C(=O)N1 (stereo not drawn) [Example 32] | < 15 nM | < 1 µM |  |  | 60 to 120 nM | 
N#Cc1ccc(-c2ncc(CNc3cccc4c3C(=O)N(C3CCC(=O)NC3=O)C4=O)s2)cc1 (stereo not drawn) [Example 33, 4-(5-(((2-(2,6-dioxopiperidin-3-yl)-1,3-dioxoisoindolin-4-yl)amino)methyl)thiazol-2-yl)benzonitrile] | < 15 nM | < 1 µM |  |  | 60 to 120 nM | 
O=C1CCC(N2C(=O)c3cccc(NCc4ncc(-c5ccc(F)cc5)s4)c3C2=O)C(=O)N1 (stereo not drawn) [Example 34] | 30 to 150 nM | < 1 µM |  |  | > 120 nM | 
COc1ccc(-c2ncc(CNc3cccc4c3C(=O)N(C3CCC(=O)NC3=O)C4=O)s2)c(OC)c1 (stereo not drawn) [Example 36] | 15 to 30 nM | < 1 µM |  |  | > 120 nM | 
CC(C)(C)C(=O)OCN1C(=O)CCC(N2C(=O)c3cccc(NCc4cnc(-c5ccc(Cl)cc5)o4)c3C2=O)C1=O (stereo not drawn) [Example 40, (3-(4-(((2-(4-Chlorophenyl)-5-oxazolyl)methyl)amino)-1,3-dioxoisoindol-2-yl)-2,6-dioxopiperidin-1-yl)methyl Neopentyl Ester] | 30 to 150 nM | < 1 µM |  |  | > 120 nM | 
O=C1CCC(N2C(=O)c3cccc(NCc4cnc(-c5ccc(Cl)nc5)o4)c3C2=O)C(=O)N1 (stereo not drawn) [Example 44] | 30 to 150 nM | > 20 µM |  |  | > 120 nM | 
COCCOc1ccc(-c2ncc(CNc3cccc4c3C(=O)N(C3CCC(=O)NC3=O)C4=O)o2)cc1 (stereo not drawn) [Example 52] | < 15 nM | < 1 µM |  |  | < 60 nM | 
O=C1CCC(N2C(=O)c3cccc(NCc4cnc(-c5ccc(OC6CCOCC6)cc5)o4)c3C2=O)C(=O)N1 (stereo not drawn) [Example 53] | < 15 nM | < 1 µM |  |  | < 60 nM | 
O=C1CCC(N2C(=O)c3cccc(NCc4cnc(-c5ccc(C(F)(F)F)cc5)o4)c3C2=O)C(=O)N1 (stereo not drawn) [Example 57] | < 15 nM | < 1 µM |  |  | > 120 nM | 
O=C1CCC(N2C(=O)c3cccc(NCc4ncc(-c5ccc(C(F)(F)F)cc5)o4)c3C2=O)C(=O)N1 (stereo not drawn) [Example 60] | 15 to 30 nM | 1 to 20 µM |  |  | > 120 nM | 
O=C1CCC(N2C(=O)c3cccc(NCc4ncc(-c5ccccc5C(F)(F)F)o4)c3C2=O)C(=O)N1 (stereo not drawn) [Example 62] | > 150 nM | 1 to 20 µM |  |  | > 120 nM | 
O=C1CCC(N2C(=O)c3cccc(NCc4cnc(-c5cccc(Cl)c5)o4)c3C2=O)C(=O)N1 (stereo not drawn) [Example 63, 4-(((2-(3-Chlorophenyl)oxazol-5-yl)methyl)amino)-2-(2,6-Dioxopiperidin-3-yl)isoindolin-1,3-dione] | 15 to 30 nM | < 1 µM |  |  | > 120 nM | 
O=C1CCC(N2C(=O)c3cccc(NCc4ncc(-c5ccc(Cl)cc5)o4)c3C2=O)C(=O)N1 (stereo not drawn) [Example 64, 4-(((5-(4-Chlorophenyl)oxazol-2-yl)methyl)amino)-2-(2,6-Dioxopiperidin-3-yl)isoindolin-1,3-dione] | < 15 nM | < 1 µM |  |  | > 120 nM | 

More lines, main results first:

IC50 [1, 4] | IC50 [3, 6] | IC50 ([1]; Table 4, read-out: Inhibitory Activity of Compounds on Cell Proliferation MM.1S IC50) | IC50 ([3]; MV4-11, Table 4, values in μM, read-out: Inhibitory Activity of Compounds on Cell Proliferation MV-4-11 IC50) | Structure (SMILES) | IC50 [2, 5] | IC50 ([2]; Table 4, read-out: Inhibitory Activity of Compounds on Cell Proliferation Mino IC50)
< 15 nM | < 1 µM | < 15 nM | < 1 µM | O=C1CCC(N2C(=O)c3cccc(NCc4cnc(-c5ccc(Cl)cc5)o4)c3C2=O)C(=O)N1 (stereo not drawn) [Example 25] | < 60 nM | < 60 nM
< 15 nM | < 1 µM |  |  | O=C1CCC(N2C(=O)c3cccc(NCc4cnc(-c5ccc(F)cc5)o4)c3C2=O)C(=O)N1 (stereo not drawn) [Example 26] | < 60 nM | 
< 15 nM | < 1 µM |  |  | O=C1CCC(N2C(=O)c3cccc(NCc4cnc(-c5ccccc5Cl)o4)c3C2=O)C(=O)N1 (stereo not drawn) [Example 27] | 60 to 120 nM | 
30 to 150 nM | 1 to 20 µM |  |  | O=C1CCC(N2C(=O)c3cccc(NCc4cnc(-c5cccc(F)c5)s4)c3C2=O)C(=O)N1 (stereo not drawn) [Example 28] | > 120 nM | 
< 15 nM | < 1 µM |  |  | Cc1ccc(-c2ncc(CNc3cccc4c3C(=O)N(C3CCC(=O)NC3=O)C4=O)s2)cc1 (stereo not drawn) [Example 29] | > 120 nM | 
15 to 30 nM | 1 to 20 µM |  |  | N#Cc1cccc(-c2ncc(CNc3cccc4c3C(=O)N(C3CCC(=O)NC3=O)C4=O)s2)c1 (stereo not drawn) [Example 30] | > 120 nM | 
< 15 nM | < 1 µM |  |  | C=Cc1ccc(-c2ncc(CNc3cccc4c3C(=O)N(C3CCC(=O)NC3=O)C4=O)s2)cc1 (stereo not drawn) [Example 31] | < 60 nM | 
< 15 nM | < 1 µM |  |  | O=C1CCC(N2C(=O)c3cccc(NCc4cnc(-c5ccc(OC(F)(F)F)cc5)s4)c3C2=O)C(=O)N1 (stereo not drawn) [Example 35] | < 60 nM | 
15 to 30 nM | < 1 µM |  |  | CC(C)(C)C(=O)OCN1C(=O)CCC(N2C(=O)c3cccc(NCc4cnc(-c5ccc(C(F)(F)F)cc5)s4)c3C2=O)C1=O (stereo not drawn) [Example 39] | 60 to 120 nM | 
15 to 30 nM | 1 to 20 µM |  |  | CC(C)(C)C(=O)OCN1C(=O)CCC(N2C(=O)c3cccc(NCc4cnc(C5CCN(C(=O)C(C)(C)C)CC5)o4)c3C2=O)C1=O (stereo not drawn) [Example 41] | > 120 nM | 
< 15 nM | < 1 µM |  |  | O=C1CCC(N2C(=O)c3cccc(NCc4cnc(-c5ccc(Cl)cn5)s4)c3C2=O)C(=O)N1 (stereo not drawn) [Example 43] | > 120 nM | 
15 to 30 nM | 1 to 20 µM |  |  | [2H]c1c([2H])c([2H])c(-c2ncc(CNc3cccc4c3C(=O)N(C3CCC(=O)NC3=O)C4=O)s2)c([2H])c1[2H] (stereo not drawn) [Example 46] | > 120 nM | 
< 15 nM | < 1 µM |  |  | O=C1CCC(N2C(=O)c3cccc(NCc4cnc(-c5ccc(O[C@H]6CCOC6)cc5)o4)c3C2=O)C(=O)N1 (stereo partly drawn) [Example 48] | < 60 nM | 
15 to 30 nM | < 1 µM |  |  | O=C1CCC(N2C(=O)c3cccc(NCc4cnc(-c5ccc(OC6COC6)cc5)o4)c3C2=O)C(=O)N1 (stereo not drawn) [Example 49] | < 60 nM | 
< 15 nM | < 1 µM |  |  | O=C1CCC(N2C(=O)c3cccc(NCc4cnc(-c5ccc(OCCO)cc5)o4)c3C2=O)C(=O)N1 (stereo not drawn) [Example 50] | < 60 nM | 
< 15 nM | < 1 µM |  |  | O=C1CCC(N2C(=O)c3cccc(NCc4cnc(-c5ccc(O[C@@H]6CCOC6)cc5)o4)c3C2=O)C(=O)N1 (stereo partly drawn) [Example 54] | < 60 nM | 
15 to 30 nM | < 1 µM |  |  | O=C1CCC(N2C(=O)c3cccc(NCc4cnc(-c5cccc(C(F)(F)F)c5)o4)c3C2=O)C(=O)N1 (stereo not drawn) [Example 58] | > 120 nM | 
30 to 150 nM | 1 to 20 µM |  |  | O=C1CCC(N2C(=O)c3cccc(NCc4cnc(-c5ccccc5C(F)(F)F)o4)c3C2=O)C(=O)N1 (stereo not drawn) [Example 59] | > 120 nM | 
30 to 150 nM | > 20 µM |  |  | O=C1CCC(N2C(=O)c3cccc(NCc4ncc(-c5cccc(C(F)(F)F)c5)o4)c3C2=O)C(=O)N1 (stereo not drawn) [Example 61] | > 120 nM | 
